One may read the IC50 as the concentration that inhibits the measured activity by half.

This note sets out measurements from article PMC7181660, “A novel specific PERK activator reduces toxicity and extends survival in Huntington's disease models” (Scientific Reports, 2020).

The subject of experiment [1] is CHOP mRNA. Put plainly: CHOP mRNA by qPCR in STHdh^Q7/7 and STHdh^Q111/111 cells. It counts as cell-based, murine. To be noted: both cell types, qPCR vs GAPDH. Here is the method: Total cell RNA was extracted with TRIzol reagent (Invitrogen) according to the manufacturer's instructions. Reverse transcription (RT) was performed with QuantaBio qScript cDNA synthesis kit. Real-time qPCR was carried out using a CFX Connect Real-Time PCR Detection System (BioRad) and the amplifications were done using the SYBR Green PCR Master Mix (pcrbio). Reactions were run in triplicates in three independent experiments. Housekeeping gene GAPDH was used as an internal control to normalize the variability of expression levels.
A general note: Quantitative PCR measures a nucleic acid by following its amplification.

The test system of experiment [2] is STHdh^Q111/111 cells. Put plainly: Toxicity assay: rescue from tunicamycin (ER stress)-induced apoptosis, FACS with propidium iodide (sub-G0/G1). It counts as cell-based, murine. Here is the method: STHdh^Q111/111 cells (used before[13]) or PERK+/+ or PERK−/− MEFs (kindly provided by David Ron, Univ. Cambridge) were incubated with Tun (10 μg/ml) for 48 h, which results in ER stress-induced cell death. Cells under the same conditions were incubated for the same times, together with Tun, with increasing concentrations of the different PERK modulators (0–120 μM) and the percent of apoptotic cells was measured by FACS cell cycle progression using propidium iodide (PI), considering the fraction beneath G0/G1. The relative apoptosis rate was calculated to be able to compare between compounds and experiments, where for each concentration curve the percent of apoptotic cells was considered 100 at concentration 0 of the PERK modulator, with only Tun. The graphs show the average relative apoptosis rate of at least 3 independent experiments for each compound.
Cells were washed with PBS and fixed with cold methanol. Before FACS analysis cells were washed with PBS, followed by addition of propidium iodide (PI) solution (10 μg/ml) and analysis by flow cytometry. Cells in sub-G0/G1 were counted as apoptotic/ dead.

Experiment [3] deals with eIF2α-P. Put plainly: Brain striatum immunofluorescence of eIF2α-P / total eIF2α. It counts as in vivo, mice. To be noted: week 4 after pump implantation. Here is the method: Under anesthesia, animals were perfused with 4% PFA (formaldehyde in phosphate-buffered saline (PBS)) and the brains were removed and soaked in 4% PFA overnight. Then, brains were incubated overnight in 30% sucrose solution and frozen in OCT compound Tissue-Tek by using dry ice. Sections (10 µm) of the striatum were obtained by cryostat. Brain sections were processed for immunochemistry with the kind help of Daniel Frenkel. They were washed with PBS for 10 minutes, incubated in 0.5% triton-X-100 for 10 minutes and then in blocking solution containing 1% bovine serum albumin (BSA), 10% normal goat serum and 0.25% triton for one hour at room temperature. The samples were rinsed with PBS and incubated overnight at 4 °C with the selected primary antibody diluted in blocking solution (eIF2α-mouse [1:400] and phosphorylated eIF2α-rabbit [1:400]). […] After washing with PBS, samples were placed in DAPI (4′,6-diamidino-2-phenylindole) diluted in PBS for 10 minutes, mounted and examined by confocal microscope Zeiss LSM-510, 3 slides were analysed from each subject.
Signal quantification and cell counting were done using the ImageJ program. The value obtained for the phosphorylated eIF2α signal was divided by the total eIF2α signal in the same image. […] Statistical significance was determined at P < 0.05.

In experiment [4] the test system is ATF4. Put plainly: ATF4 protein levels by immunoblot in STHdh^Q7/7 cells. It counts as cell-based, murine. The conditions noted are these: high MK-28 concentration. Here is the method:
STHdh^Q7/7 and STHdh^Q111/111 cells were treated with different concentrations of MK-28. The concentration range was chosen in accordance to previous studies with A4. Cells were lysed with PBS containing 1% Triton X-100, 0.5% Sodium deoxycholate with protease and phosphatase inhibitors cocktails. Cocktail 2 and 3 (Sigma) were added to the lysis buffer for detection of phosphorylated proteins and lysates were incubated on ice for 30 minutes, then centrifuged at 16,000xg for 30 minutes a 4 °C. […] Immunoblotting, detection by ECL and quantitation was done as described previously.
In general terms: In western blotting, separated proteins are transferred to a membrane and probed.

Turning to `CN(/N=C\c1ccc(O)c(O)c1)c1nc(-c2ccccc2)cc(-c2ccccc2)n1` [MK-28], the “increase of CHOP mRNA levels” value in experiment [1] is reported as “up to 10 fold”. Besides, the “rescue from ER stress-induced apoptosis” value in experiment [2] (0–100 μM, 48 h Tun exposure (Fig. 1C)) was “able to rescue the cells from apoptosis”. Besides, the reduction of apoptosis stood at 20% in experiment [2] (5 μM, 48 h Tun exposure); 40% in experiment [2] (10 μM, Tun (Fig. 4C)); 5 fold in experiment [2] (100 μM, 48 h Tun exposure). Besides, the “IC50 ratio MK-28 vs CCT020312 in rescuing mHtt-expressing striatal neurons from apoptosis” value in experiment [2] (Fig. 4C) is ~ 3 fold. Further, the IC50 in experiment [2] (Mus musculus, STHdhQ111, STHdh^Q111/111 cells treated with Tun, read-out: IC50 for inhibition of apoptosis) was 6.8 µM. Besides, the “concentration that showed identical levels of apoptosis in STHdh^Q111/111 and STHdh^Q7/7 cells” value in experiment [2] (Tun (Fig. 1D)) amounted to 50 µM. For the same molecule, the “increase of eIF2α-P levels in striatum” value in experiment [3] (TG mice) is given as ~ 6 fold; in experiment [3] (WT mice), ~ 7 fold. In addition, in experiment [4], the “increase of ATF4 protein levels” value is listed as “up to 2.5 fold”.
